{
  "source": "patent US20220175798A1",
  "about": "“COMPOSITIONS COMPRISING OXYGENATED CHOLESTEROL SULFATE AND AT LEAST ONE OF POLYALKYLENE GLYCOL, CARBOXYMETHYL CELLULOSE AND POLYOXYLGLYCERIDE” (Durect Corporation, priority 2016, published 2022)",
  "key": {"[1]": {"tested_on": "renal ischemia/reperfusion injury", "test": "Renal ischemia/reperfusion injury in rats", "type": "in vivo, Lewis rats", "settings": "50 mg/kg daily for 4 days oral gavage; Day 3; vs vehicle; not statistically significant", "description": "The subjects for the study were 18 adult male Lewis rats (9-11 weeks of age; 225-250 g). […] All animals were in healthy condition and admitted to the study.\n(§1) The Vehicle was a solution of 0.5% (w/v) CMC and 0.05% (v/v) Tween-80 in water. Powdered 25HC3 S was constituted into the vehicle solution to result in a drug concentration of 20 mg/mL. The suspensions were homogenized at 20,000 rotations per minute (rpm) for approximately 5 minutes after being combined, with 10 second breaks every 30-40 seconds and swirled before dosing to maintain homogeneity. The formulated test article was prepared weekly and kept at room temperature.\nAll rats were anesthetized with intraperitoneal injection of pentobarbital (40 mg/kg). Ischemia of the left kidney was achieved by transient occlusion of the left renal artery and vein, and ureter for 50 min with a vascular micro-clip. The skin was temporarily closed during the ischemia period and the rats were put on a heating pad maintained at a temperature of 37° C. At reperfusion, the right kidney was removed before permanently closing the abdomen with 4-0 silk suture Animals were treated with vehicle (N=6) or 25HC3S (N=12) daily for 4 days, starting on the day before the surgery, (pre-treatment, Day −1) and for 2 days after the surgery. […] Serum creatinine (sCr) levels and BUN levels were examined on Day −2 (baseline), Day 3, and/or Day 7 after the surgery."}, "[2]": {"test": "Oral pharmacokinetics in HFD-fed Golden Syrian hamsters", "type": "in vivo", "text": "(§2) The subjects for the study were 40 Golden Syrian male hamsters. Two cohorts were provided with either regular diet (RD) or high fat diet (HFD) for 10 weeks. 25HC3 S treatment was initiated at the start of Week 11. Group 1 remained on a regular diet while HFD-fed hamsters were randomly divided into three treatment groups (Groups 2-4; Table 20).\nas §1, with “in” for “in a”, “concentrations” for “concentration”, “2.5 and 10” for “20”, “homogenized” for “homogenized at 20,000 rotations per minute (rpm)”, “minutes” for “minutes after”\n(§3) Hamsters were treated with 25HC3 S by daily oral gavage for 6 weeks while maintained on RD or HFD. Each hamster received daily doses of 25HC3S or vehicle by oral gavage (N=10/group). There were two dose groups (Groups 3 and 4): 10 and 50 mg/kg, as specified in Table 20, with dose volumes of 4 and 5 mL/kg, respectively.\nFor pharmacokinetic (PK) analysis, blood was collected following the first 25HC3S dose. Whole blood samples were collected via the jugular vein at pre-dose, 0.5, 2, 4, 8, 12 hours (h) post dose from each hamster; however, the last blood collection may have been collected by terminal cardiac puncture with the animals deeply anesthetized by isoflurane. Blood samples were placed into tubes containing K2EDTA. The blood was gently mixed to assure distribution of the anti-coagulant and the resulting plasma samples underwent analyses to quantify 25HC3S levels."}, "[3]": {"test": "Stability and impurity profile of 25HC3S suspension at room temperature by HPLC", "type": "physicochemical", "description": "The HPLC technique involved reverse phase HPLC for measuring the concentration of 25HC3 S in the solubility samples.\nWeigh 80 mg of 25HC3S (Lot #B, Passed through 20 mesh screen and Jet-milled, 3rd pass) into a 10 mL vial. Add to the vial, 8 mL of Vehicle PEG 3350 (with 0.15% L-Methionine and 0.9% NaCl). […] A total of 9 samples were dispensed using 1 mL BD syringes attached to 20G1″ or 25G⅝″ Terumo UTW needles for homogeneity analysis by HPLC (Study #14) and stability study (Study #17)."}, "[4]": {"tested_on": "high fat diet (HFD)-fed hamsters", "test": "Pharmacodynamic study in HFD-fed Golden Syrian hamsters (serum chemistry, hepatic lipids, histopathology)", "type": "in vivo", "text": "as §2\nas §1, with “in” for “in a”, “concentrations” for “concentration”, “2.5 and 10” for “20”, “homogenized” for “homogenized at 20,000 rotations per minute (rpm)”, “minutes” for “minutes after”\nas §3\nFor pharmacodynamic measures of efficacy, clinical chemistry parameters were measured by collection of fasting serum throughout the study to assess the effects of HFD and 25HC3S treatment compared to animals on a RD and given the vehicle control.\nAssessments included, but were not limited to, assessment of activity, posture, respiration, emesis, seizure, hydration status, injection site assessment and overall body condition. At the end of the in-life portion of the study (Week 16), all animals were sacrificed and livers collected for biochemical and histopathology analyses."}, "[5]": {"test": "Osmolality by vapor pressure osmometer", "type": "physicochemical", "description": "Vapor Pressure Osmometer: Vapor® Vapor Pressure Osmometer, Model\nVehicle PEG 3350 (3% PEG 3350 plus 0.3% Tween 80 in 10 mM Phosphate at pH 7.4) with 0.71%, 0.77% and 0.80% NaCl were prepared and the osmolality was measured with a vapor pressure osmometer.\nWeigh 87 mg of 25HC3S (Lot #C, Jet milled and then pass 20 mesh screen) into a 5-mL vial. Add to the vial 3 mL Vehicle PEG 3350 (without L-methionine and with 0.75% NaCl). […] Weigh another approximately and accurately 90 mg each of 25HC3S (Lot #D and Lot #B, micronized, one pass) into 3 separate 10 mL vials with 3 mL of Vehicle PEG 3350. The vials were placed in a flat bed shaker at 200 rpm for 45 minutes (Mixing Method 4). […] A second set of samples was prepared likewise from the same 3 vials except using 1 mL BD syringe attached to a 27G½″ needle. The homogeneity was determined (Study #19)."}, "[6]": {"settings": "HFD-fed hamsters, Group 3, 10 mg/kg daily oral gavage 6 weeks"}, "[7]": {"settings": "HFD-fed hamsters, Group 4, 50 mg/kg daily oral gavage 6 weeks"}},
  "data": [
    {"smiles": "C[C@H](CCCC(C)(C)O)[C@H]1CC[C@H]2[C@@H]3CC=C4C[C@@H](OS(=O)(=O)[O-])CC[C@]4(C)[C@H]3CC[C@]12C.[Na+]", "note": "[Formulation 25HC3S, 5-cholesten-3, 25-diol, 3-sulfate]", "values": [
      {"measurement": "reduction of BUN levels", "setting": "[1]", "value": 5, "unit": "%"},
      {"measurement": "reduction of sCr levels", "setting": "[1]", "value": "~20", "unit": "%"},
      {"measurement": "dose-normalized AUC", "setting": "[2]; 10 mg/kg oral", "value": 195, "unit": "ng·h/mL/mg"},
      {"measurement": "normalized Cmax", "setting": "[2]; 10 mg/kg oral", "value": 32.2, "unit": "ng/mL/mg"},
      {"measurement": "normalized Cmax", "setting": "[2]; 50 mg/kg oral", "value": "only half of the 10 mg/kg dose"},
      {"measurement": "mean half-life", "setting": "[2]; first oral dose", "value": 3, "unit": "h"},
      {"measurement": "time of mean maximum plasma concentration", "setting": "[2]; first oral dose, both doses (10 and 50 mg/kg)", "value": 0.5, "unit": "h"},
      {"measurement": "odor after storage", "setting": "[3]; 25HC3S in Vehicle PEG 3350 with L-Methionine, room temperature for a few months", "value": "produced a sulfur-like odor"},
      {"measurement": "% peak area for 25HC3S", "setting": "[3]; after 2 weeks at RT, 25 mg/mL in Vehicle PEG 3350 (with 0.15% L-Methionine), 25HC3S plus two impurities as 100%, n=2", "value": "approximately 99.17%"},
      {"measurement": "drug potency", "setting": "[3]; after 2 weeks at RT, time 0 concentration as 100%, n=2, 25 mg/mL in Vehicle PEG 3350 (with 0.15% L-Methionine)", "value": 103.7, "unit": "%"},
      {"measurement": "25HC3S by peak area normalization", "setting": "[3]; final suspension formulation 25 mg/mL, room temperature up to 14 days", "value": 99.172, "unit": "%"},
      {"measurement": "stable at ambient room temperature", "setting": "[3]; suspension 25 mg/mL in Vehicle PEG 3350 (with 0.15% L-Methionine)", "value": "at least 2 weeks"},
      {"measurement": "hepatic cholesterol levels", "setting": "[4]; 10 mg/kg, 6 weeks", "value": "no effect"},
      {"measurement": "hepatic cholesterol levels", "setting": "[4]; 50 mg/kg (Group 4), 6 weeks", "value": "significantly reduced"},
      {"measurement": "reduction in serum cholesterol levels", "setting": "[4]; 50 mg/kg (Group 4), 6 weeks of treatment (Week 16), not statistically significant", "value": "15-18%"},
      {"measurement": "HFD-related liver weight gain", "setting": "[4]; 6 weeks of treatment", "value": "no statistically significant effect"},
      {"measurement": "HDL and LDL cholesterol", "setting": "[4]; 6 weeks of treatment, HFD-fed hamsters", "value": "reduced both HDL and LDL cholesterol in a dose-dependent fashion"},
      {"measurement": "ALT and AST levels", "setting": "[4]; 6 weeks of treatment, compared to vehicle", "value": "reduced both ALT and AST levels"},
      {"measurement": "incidence of “normal-appearing” livers at gross necropsy", "setting": "[4]; Group 4 (50 mg/kg)", "value": 22, "unit": "%"},
      {"measurement": "Hepatic Free Fatty Acids", "setting": "[4]; [6]", "value": "7.3 (±0.6) Meg/mg protein"},
      {"measurement": "Hepatic Total Cholesterol", "setting": "[4]; [6]", "value": "155.5 (±37.9) μg/mg protein"},
      {"measurement": "Hepatic Triglyceride", "setting": "[4]; [6]", "value": "66.1 (±23.3) μg/mg protein"},
      {"measurement": "Hepatic Free Fatty Acids", "setting": "[4]; [7]", "value": "6.6 (±1.4) Meg/mg protein"},
      {"measurement": "Hepatic Triglyceride", "setting": "[4]; [7]", "value": "46.4 (±15.6) μg/mg protein"},
      {"measurement": "Hepatic Total Cholesterol", "setting": "[4]; HFD-fed hamsters, Group 4, 50 mg/kg daily oral gavage 6 weeks, p < 0.05 compared to Group 2", "value": "75.2 (±45.7) μg/mg protein"},
      {"measurement": "clinical signs", "setting": "[4]; PO daily for 6 weeks, hamsters", "value": "did not result in any notable clinical signs"},
      {"measurement": "liver histopathology (H&E and Oil Red O)", "setting": "[4]; dose-dependent, compared to HFD-fed control (Group 2)", "value": "considerably less microvesicular changes, reduced Oil Red 0 staining, and milder inflammation"},
      {"measurement": "serum triglyceride levels", "setting": "[4]; treated groups vs vehicle across 6 weeks, not statistically significant", "value": "trending higher"},
      {"measurement": "hepatic triglyceride levels", "setting": "[4]; with increasing dosage, 6 weeks, did not reach statistical significance", "value": "Reduced"},
      {"measurement": "osmolality", "setting": "[5]; final improved formulation 25 mg/mL (Study #18)", "value": 321, "unit": "mmol/kg"},
      {"measurement": "osmolality", "setting": "[5]; suspension 25 mg/mL in Vehicle PEG 3350 without L-Methionine, 0.75% NaCl, average of 6 measurements", "value": 321, "unit": "mmol/kg"}
    ]}
  ]
}
